The CheMixHub viscosity set
± gives the uncertainty stated by the source.

Assay: xn = mol fraction of the nth substance listed

CCC(=O)O + C1CCCCC1
viscosity (303.15 K, 101 kPa, x2 = 0.1973): 0.8074 ± 0.0096 mPa·s | viscosity (303.15 K, 101 kPa, x2 = 0.286): 0.771 ± 0.0092 mPa·s | viscosity (303.15 K, 101 kPa, x2 = 0.384): 0.7319 ± 0.0087 mPa·s | viscosity (303.15 K, 101 kPa, x2 = 0.4987): 0.7121 ± 0.0085 mPa·s | viscosity (303.15 K, 101 kPa, x2 = 0.5994): 0.7197 ± 0.0086 mPa·s | viscosity (303.15 K, 101 kPa, x2 = 0.6998): 0.7155 ± 0.0085 mPa·s | viscosity (303.15 K, 101 kPa, x2 = 0.8991): 0.7582 ± 0.009 mPa·s

CCC(=O)O + O
viscosity (293.15 K, 101.33 kPa, x1 = 0.0263): 1.322 ± 0.013 mPa·s | viscosity (293.15 K, 101.33 kPa, x1 = 0.0944): 1.977 ± 0.02 mPa·s | viscosity (293.15 K, 101.33 kPa, x1 = 0.196): 2.601 ± 0.026 mPa·s | viscosity (298.15 K, 101 kPa, x1 = 0.0263): 1.443 ± 0.29 mPa·s | viscosity (298.15 K, 101 kPa, x1 = 0.0944): 2.821 ± 0.57 mPa·s | viscosity (298.15 K, 101 kPa, x1 = 0.196): 3.483 ± 0.7 mPa·s | viscosity (298.15 K, 101 kPa, x1 = 0.362): 3.351 ± 0.68 mPa·s | viscosity (298.15 K, 101 kPa, x1 = 0.686): 2.816 ± 0.57 mPa·s | viscosity (308.15 K, 101 kPa, x1 = 0.0263): 1.08 ± 0.22 mPa·s | viscosity (308.15 K, 101 kPa, x1 = 0.0944): 1.945 ± 0.39 mPa·s | viscosity (308.15 K, 101 kPa, x1 = 0.196): 2.418 ± 0.49 mPa·s | viscosity (308.15 K, 101 kPa, x1 = 0.362): 2.393 ± 0.48 mPa·s | viscosity (308.15 K, 101 kPa, x1 = 0.686): 2.082 ± 0.42 mPa·s | viscosity (313.15 K, 101.33 kPa, x1 = 0.0263): 0.858 ± 0.0086 mPa·s | viscosity (313.15 K, 101.33 kPa, x1 = 0.0944): 1.188 ± 0.012 mPa·s | viscosity (313.15 K, 101.33 kPa, x1 = 0.196): 1.552 ± 0.016 mPa·s | viscosity (318.15 K, 101 kPa, x1 = 0.0263): 0.856 ± 0.17 mPa·s | viscosity (318.15 K, 101 kPa, x1 = 0.0944): 1.434 ± 0.29 mPa·s | viscosity (318.15 K, 101 kPa, x1 = 0.196): 1.789 ± 0.36 mPa·s | viscosity (318.15 K, 101 kPa, x1 = 0.362): 1.789 ± 0.36 mPa·s | viscosity (318.15 K, 101 kPa, x1 = 0.686): 1.592 ± 0.32 mPa·s

C1C[C@@H]2[C@H]3CC[C@H](C3)[C@@H]2C1 + CC(C)CO
viscosity (293.15 K, 100 kPa, x1 = 0.1002): 3.668 ± 0.079 mPa·s | viscosity (293.15 K, 100 kPa, x1 = 0.2): 3.397 ± 0.073 mPa·s | viscosity (293.15 K, 100 kPa, x1 = 0.3002): 3.217 ± 0.069 mPa·s | viscosity (293.15 K, 100 kPa, x1 = 0.4003): 3.04 ± 0.066 mPa·s | viscosity (293.15 K, 100 kPa, x1 = 0.4998): 2.883 ± 0.063 mPa·s | viscosity (293.15 K, 100 kPa, x1 = 0.6003): 2.814 ± 0.062 mPa·s | viscosity (293.15 K, 100 kPa, x1 = 0.7002): 2.769 ± 0.061 mPa·s | viscosity (293.15 K, 100 kPa, x1 = 0.7994): 2.78 ± 0.062 mPa·s | viscosity (293.15 K, 100 kPa, x1 = 0.8979): 2.848 ± 0.064 mPa·s | viscosity (298.15 K, 100 kPa, x1 = 0.1002): 3.135 ± 0.067 mPa·s | viscosity (298.15 K, 100 kPa, x1 = 0.2): 2.923 ± 0.063 mPa·s | viscosity (298.15 K, 100 kPa, x1 = 0.3002): 2.772 ± 0.06 mPa·s | viscosity (298.15 K, 100 kPa, x1 = 0.4003): 2.644 ± 0.057 mPa·s | viscosity (298.15 K, 100 kPa, x1 = 0.4998): 2.541 ± 0.055 mPa·s | viscosity (298.15 K, 100 kPa, x1 = 0.6003): 2.489 ± 0.055 mPa·s | viscosity (298.15 K, 100 kPa, x1 = 0.7002): 2.47 ± 0.054 mPa·s | viscosity (298.15 K, 100 kPa, x1 = 0.7994): 2.493 ± 0.055 mPa·s | viscosity (298.15 K, 100 kPa, x1 = 0.8979): 2.563 ± 0.057 mPa·s | viscosity (303.15 K, 100 kPa, x1 = 0.1002): 2.692 ± 0.058 mPa·s | viscosity (303.15 K, 100 kPa, x1 = 0.2): 2.526 ± 0.054 mPa·s | viscosity (303.15 K, 100 kPa, x1 = 0.3002): 2.408 ± 0.052 mPa·s | viscosity (303.15 K, 100 kPa, x1 = 0.4003): 2.318 ± 0.05 mPa·s | viscosity (303.15 K, 100 kPa, x1 = 0.4998): 2.247 ± 0.049 mPa·s | viscosity (303.15 K, 100 kPa, x1 = 0.6003): 2.219 ± 0.049 mPa·s | viscosity (303.15 K, 100 kPa, x1 = 0.7002): 2.219 ± 0.049 mPa·s | viscosity (303.15 K, 100 kPa, x1 = 0.7994): 2.249 ± 0.05 mPa·s | viscosity (303.15 K, 100 kPa, x1 = 0.8979): 2.323 ± 0.052 mPa·s | viscosity (308.15 K, 100 kPa, x1 = 0.1002): 2.325 ± 0.05 mPa·s | viscosity (308.15 K, 100 kPa, x1 = 0.2): 2.196 ± 0.047 mPa·s | viscosity (308.15 K, 100 kPa, x1 = 0.3002): 2.108 ± 0.046 mPa·s | viscosity (308.15 K, 100 kPa, x1 = 0.4003): 2.044 ± 0.044 mPa·s | viscosity (308.15 K, 100 kPa, x1 = 0.4998): 1.998 ± 0.044 mPa·s | viscosity (308.15 K, 100 kPa, x1 = 0.6003): 1.99 ± 0.044 mPa·s | viscosity (308.15 K, 100 kPa, x1 = 0.7002): 2.003 ± 0.044 mPa·s | viscosity (308.15 K, 100 kPa, x1 = 0.7994): 2.037 ± 0.045 mPa·s | viscosity (308.15 K, 100 kPa, x1 = 0.8979): 2.113 ± 0.047 mPa·s | viscosity (313.15 K, 100 kPa, x1 = 0.1002): 2.02 ± 0.043 mPa·s | viscosity (313.15 K, 100 kPa, x1 = 0.2): 1.92 ± 0.041 mPa·s | viscosity (313.15 K, 100 kPa, x1 = 0.3002): 1.856 ± 0.04 mPa·s | viscosity (313.15 K, 100 kPa, x1 = 0.4003): 1.814 ± 0.039 mPa·s | viscosity (313.15 K, 100 kPa, x1 = 0.4998): 1.787 ± 0.039 mPa·s | viscosity (313.15 K, 100 kPa, x1 = 0.6003): 1.79 ± 0.039 mPa·s | viscosity (313.15 K, 100 kPa, x1 = 0.7002): 1.814 ± 0.04 mPa·s | viscosity (313.15 K, 100 kPa, x1 = 0.7994): 1.854 ± 0.041 mPa·s | viscosity (313.15 K, 100 kPa, x1 = 0.8979): 1.929 ± 0.043 mPa·s | viscosity (318.15 K, 100 kPa, x1 = 0.1002): 1.764 ± 0.038 mPa·s | viscosity (318.15 K, 100 kPa, x1 = 0.2): 1.689 ± 0.036 mPa·s | viscosity (318.15 K, 100 kPa, x1 = 0.3002): 1.645 ± 0.036 mPa·s | viscosity (318.15 K, 100 kPa, x1 = 0.4003): 1.616 ± 0.035 mPa·s | viscosity (318.15 K, 100 kPa, x1 = 0.4998): 1.607 ± 0.035 mPa·s | viscosity (318.15 K, 100 kPa, x1 = 0.6003): 1.618 ± 0.035 mPa·s | viscosity (318.15 K, 100 kPa, x1 = 0.7002): 1.646 ± 0.036 mPa·s | viscosity (318.15 K, 100 kPa, x1 = 0.7994): 1.695 ± 0.038 mPa·s | viscosity (318.15 K, 100 kPa, x1 = 0.8979): 1.77 ± 0.04 mPa·s | viscosity (323.15 K, 100 kPa, x1 = 0.1002): 1.551 ± 0.033 mPa·s | viscosity (323.15 K, 100 kPa, x1 = 0.2): 1.494 ± 0.032 mPa·s | viscosity (323.15 K, 100 kPa, x1 = 0.3002): 1.465 ± 0.032 mPa·s | viscosity (323.15 K, 100 kPa, x1 = 0.4003): 1.448 ± 0.031 mPa·s | viscosity (323.15 K, 100 kPa, x1 = 0.4998): 1.452 ± 0.032 mPa·s | viscosity (323.15 K, 100 kPa, x1 = 0.6003): 1.471 ± 0.032 mPa·s | viscosity (323.15 K, 100 kPa, x1 = 0.7002): 1.507 ± 0.033 mPa·s | viscosity (323.15 K, 100 kPa, x1 = 0.7994): 1.555 ± 0.035 mPa·s | viscosity (323.15 K, 100 kPa, x1 = 0.8979): 1.627 ± 0.036 mPa·s
